The record followed here is paper PMC10590419, “Structural and mechanistic insights into the inhibition of respiratory syncytial virus polymerase by a non-nucleoside inhibitor” (Communications Biology, 2023).

Read-outs that look alike come from different tables or passages of the source.

Data set [1] has as its target recombinant RSV L+P (Human respiratory syncytial virus A, UniProt P28887). Kind of data set: De novo RNA synthesis assay, recombinant RSV L+P, Tr14 template. Format: biochemical, Human RSV (strain A2). Here is the method: The reactions were performed as described by Cressey et al.[22]. […] The reactions were incubated at 30 °C for 1 h and then stopped by adding gel loading buffer containing 90% formamide, 50 mM EDTA, 0.05% Xylene Cyanol and Bromophenol Blue. Samples were denatured at 95 °C for 5 min and run on a 22.5% polyacrylamide urea sequencing gel at 80 W with radiolabeled RNA markers generated via the T7 DNA dependent RNA polymerase (DdRp). The gel was dried, exposed to a phosphor-screen, scanned on a Typhoon scanner (GE Healthcare), and quantified using ImageQuant (GE Healthcare). Bands were identified as extension products or initiation products by the 11-nucleotide ppp[…] and 2-nucleotide pppGA RNA markers, respectively. Radiolabeled RNA markers corresponding to pppGA, ppp[…], and intermediates were generated utilizing a reaction by T7 DNA-dependent RNA polymerase (AM2718, Ambion)[53]. DNA oligos: 5’-[…]-3’ (T7 promoter primer) and 5’-[…]-3’ (T7 promoter primer + target sequence template) were synthesized at IDT. Due to a mechanistic idiosyncrasy in T7 DdRp, an additional Adenosine residue was placed between the T7 promoter and the target sequence in the template. Each 40 µl reaction contained 5 mM ATP, 5 mM CTP, 5 mM GTP, 100 nM annealed DNA primer and template, 20 U T7 DdRp, 1x T7 DdRp Buffer (40 mM Tris pH 7.8, 20 mM NaCl, 6 mM MgCl2, 2 mM Spermidine HCl, 10 mM DTT), and 20 µCi of [α-^33P]ATP. Reactions were incubated at 30 °C for 5 h. Then 1 µl of reconstituted DNase I (Ambion) was added and incubated for an additional 10 min at 37 °C. This reaction was quenched with the addition of 60 µl gel loading buffer.
Supplementary Figure 4. Inhibition of de novo initiation and extension of RSV L-P RNA synthesis by JNJ-8003. a. reaction scheme. b. a sequencing gel image showing RNA products […]
contained 10 nM RSV L-P, 2 μM RNA template (Tr14), 500 μM GTP, 10 μM ATP, 170 nM [α-33P]ATP, so RNA synthesis started from +3 site and paused with a major 11-mer product. c.
Data was from the quantitation results of the gel image in b. d. The reactions […]
Data points indicate the mean, and error bars depict the SD of three technical replicates. e. a sequencing gel image showing RNA products synthesized by RSV L-P along with no enzyme control. Reaction condition was same as in b with no compound added. […]

A short description of data set [2]: in vitro. The note with it: human.
Data set [3] in a line: in vitro. Particulars: rhesus monkey.
Where [4] appears, read: repeat in triplicate, 0.093 nM to 200 nM.

Sequence of recombinant RSV L+P (P28887 whole entry): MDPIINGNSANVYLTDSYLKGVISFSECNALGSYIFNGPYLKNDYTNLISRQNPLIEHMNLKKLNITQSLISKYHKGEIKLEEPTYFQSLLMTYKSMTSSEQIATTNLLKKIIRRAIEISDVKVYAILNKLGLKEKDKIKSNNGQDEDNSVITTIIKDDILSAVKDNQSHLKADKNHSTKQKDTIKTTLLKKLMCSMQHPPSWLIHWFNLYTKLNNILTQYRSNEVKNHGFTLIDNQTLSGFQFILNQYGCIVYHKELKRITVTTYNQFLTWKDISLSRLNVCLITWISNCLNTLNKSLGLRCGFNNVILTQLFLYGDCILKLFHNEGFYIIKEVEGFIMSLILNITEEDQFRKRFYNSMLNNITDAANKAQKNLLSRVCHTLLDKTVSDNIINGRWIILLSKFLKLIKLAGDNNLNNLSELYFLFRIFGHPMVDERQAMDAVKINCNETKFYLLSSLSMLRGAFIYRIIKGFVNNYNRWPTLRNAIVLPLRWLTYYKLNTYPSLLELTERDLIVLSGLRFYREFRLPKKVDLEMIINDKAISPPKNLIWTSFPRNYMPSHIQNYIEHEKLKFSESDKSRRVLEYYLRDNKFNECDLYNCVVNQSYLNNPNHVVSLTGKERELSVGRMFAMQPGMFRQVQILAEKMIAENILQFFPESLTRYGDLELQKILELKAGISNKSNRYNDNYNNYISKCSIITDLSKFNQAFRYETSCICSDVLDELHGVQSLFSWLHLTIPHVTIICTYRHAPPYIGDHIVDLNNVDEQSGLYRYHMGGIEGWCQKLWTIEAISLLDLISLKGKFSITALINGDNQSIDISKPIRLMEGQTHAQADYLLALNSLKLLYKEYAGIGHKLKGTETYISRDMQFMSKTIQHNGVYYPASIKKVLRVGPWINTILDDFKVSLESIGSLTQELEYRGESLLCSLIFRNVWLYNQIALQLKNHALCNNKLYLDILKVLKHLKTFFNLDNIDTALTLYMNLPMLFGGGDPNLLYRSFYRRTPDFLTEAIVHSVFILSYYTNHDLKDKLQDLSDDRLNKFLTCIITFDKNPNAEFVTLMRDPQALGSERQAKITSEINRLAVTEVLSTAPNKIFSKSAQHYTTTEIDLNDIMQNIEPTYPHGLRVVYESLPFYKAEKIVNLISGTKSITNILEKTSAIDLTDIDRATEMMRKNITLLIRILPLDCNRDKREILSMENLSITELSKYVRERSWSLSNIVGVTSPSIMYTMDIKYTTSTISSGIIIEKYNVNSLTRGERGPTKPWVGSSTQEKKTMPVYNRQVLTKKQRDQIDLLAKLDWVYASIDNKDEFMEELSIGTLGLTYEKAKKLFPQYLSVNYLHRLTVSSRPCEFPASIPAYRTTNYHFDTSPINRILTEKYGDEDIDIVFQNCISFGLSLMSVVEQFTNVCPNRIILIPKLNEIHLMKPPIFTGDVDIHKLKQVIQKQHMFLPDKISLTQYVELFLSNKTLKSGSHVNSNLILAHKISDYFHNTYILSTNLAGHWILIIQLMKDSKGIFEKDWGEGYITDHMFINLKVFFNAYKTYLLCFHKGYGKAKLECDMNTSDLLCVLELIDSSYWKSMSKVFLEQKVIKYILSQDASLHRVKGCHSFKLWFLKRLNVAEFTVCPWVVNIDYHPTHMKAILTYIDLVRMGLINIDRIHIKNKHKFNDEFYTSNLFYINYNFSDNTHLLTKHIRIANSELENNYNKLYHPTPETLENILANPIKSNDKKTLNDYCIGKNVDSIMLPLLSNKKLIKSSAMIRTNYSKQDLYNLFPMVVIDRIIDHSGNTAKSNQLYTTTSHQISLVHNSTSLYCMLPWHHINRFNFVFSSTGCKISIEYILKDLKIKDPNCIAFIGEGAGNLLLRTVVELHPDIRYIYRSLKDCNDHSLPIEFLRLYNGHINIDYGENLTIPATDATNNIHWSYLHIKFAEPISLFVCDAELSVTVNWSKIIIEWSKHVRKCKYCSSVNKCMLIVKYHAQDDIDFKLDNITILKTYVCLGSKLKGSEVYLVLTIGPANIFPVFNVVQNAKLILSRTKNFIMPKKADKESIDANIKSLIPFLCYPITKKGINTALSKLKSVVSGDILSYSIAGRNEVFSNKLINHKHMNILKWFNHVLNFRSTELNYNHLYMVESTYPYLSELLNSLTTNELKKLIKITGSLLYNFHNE
Sequence of recombinant RSV L+P (P03421 whole entry, further chain): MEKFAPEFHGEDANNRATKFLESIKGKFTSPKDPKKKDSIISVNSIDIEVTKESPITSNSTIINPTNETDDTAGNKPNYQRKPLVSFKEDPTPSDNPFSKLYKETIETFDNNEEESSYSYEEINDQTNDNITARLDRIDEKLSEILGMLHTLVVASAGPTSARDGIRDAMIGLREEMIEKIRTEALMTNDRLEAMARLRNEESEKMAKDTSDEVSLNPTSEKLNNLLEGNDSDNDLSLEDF

`COc1cc(C(=O)NC[C@](O)(c2cc(C(C)(C)O)c(F)c(-c3ccc(F)cc3)n2)C(F)(F)F)cc2cc(C)nnc12` [JNJ-8003]: the “maximal inhibition, 11-mer product” value in data set [1] (9.3 pM to 200 μM) came to 99%; in data set [1] (setting [4]), 100%. The “maximal inhibition, de novo pppGpA formation” value in data set [1] (9.3 pM to 200 μM) is 65%; in data set [1] (setting [4]), 69%. The IC50 in data set [1] (9.3 pM to 200 μM, read-out: IC50, 11-mer product) was 0.0047 µM; in data set [1] (+3 site, tr-14, 9.3 pM to 200 μM, read-out: IC50, de novo pppGpA dinucleotide formation), 0.0051 µM; in data set [1] (repeat in triplicate, 0.093 nM to 200 nM, read-out: IC50, 11-mer product), 0.0036 µM; in data set [1] (repeat in triplicate, 0.093 nM to 200 nM, read-out: IC50, de novo pppGpA formation) it was 0.0023 µM. The compound also had a CC50 at 3 days in data set [2] of 27 µM. Further, the CC50 turned out to be 14 µM in data set [3] (Median CC50, LLC-MK2, parallel to HMPV assay); 18 µM in data set [3] (Median CC50, LLC-MK2, parallel to PIV-1 assay); 19 µM in data set [3] (Median CC50, LLC-MK2, parallel to PIV-3 assay).

What is called IC50 is the concentration that gives 50% inhibition.
